Series [1] has as its target T1, Amylin receptor AMY3; CALCR/RAMP3 (Homo sapiens, UniProt O60896+P30988).
T1 sequence (P30988 whole entry): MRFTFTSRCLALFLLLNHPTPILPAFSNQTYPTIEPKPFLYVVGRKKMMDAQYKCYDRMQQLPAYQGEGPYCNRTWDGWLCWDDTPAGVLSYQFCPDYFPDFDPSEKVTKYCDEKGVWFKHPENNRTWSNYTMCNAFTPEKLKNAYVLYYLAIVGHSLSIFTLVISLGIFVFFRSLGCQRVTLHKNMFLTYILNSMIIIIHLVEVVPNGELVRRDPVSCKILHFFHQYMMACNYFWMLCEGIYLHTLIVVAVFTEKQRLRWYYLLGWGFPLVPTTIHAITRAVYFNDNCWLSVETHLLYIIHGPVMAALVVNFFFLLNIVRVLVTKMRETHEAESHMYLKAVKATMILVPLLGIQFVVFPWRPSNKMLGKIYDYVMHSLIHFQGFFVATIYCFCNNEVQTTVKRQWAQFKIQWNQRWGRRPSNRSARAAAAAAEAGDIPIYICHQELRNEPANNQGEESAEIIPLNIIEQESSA
T1 sequence (O60896 whole entry): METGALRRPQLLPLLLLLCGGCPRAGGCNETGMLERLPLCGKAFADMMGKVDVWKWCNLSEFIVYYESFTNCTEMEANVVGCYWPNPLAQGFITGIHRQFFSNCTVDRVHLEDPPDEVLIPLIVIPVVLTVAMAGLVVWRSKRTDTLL
The experiment in a line: Agonist activity at human AMY3R complex of CTR/RAMP3 expressed in Baby hamster kidney cells incubated for 3 hrs followed by medium replacement without compound measured after 30 mins by luciferase reporter assay. Type of series: functional, cell-based, Baby hamster kidney cell. For orientation: A reporter such as luciferase makes a cellular process visible.

In series [2] the target is T1, Amylin receptor AMY3; CALCR/RAMP3. The experiment in a line: Displacement of 125I-rat amylin from human AMY3R complex of CTR/RAMP3 expressed in Baby hamster kidney cell membrane incubated for 120 mins by SPA method. Type of series: cell membranes.
In a further series the target is T2, Calcitonin receptor (Rattus norvegicus, UniProt P32214).
T2 sequence (P32214 whole entry): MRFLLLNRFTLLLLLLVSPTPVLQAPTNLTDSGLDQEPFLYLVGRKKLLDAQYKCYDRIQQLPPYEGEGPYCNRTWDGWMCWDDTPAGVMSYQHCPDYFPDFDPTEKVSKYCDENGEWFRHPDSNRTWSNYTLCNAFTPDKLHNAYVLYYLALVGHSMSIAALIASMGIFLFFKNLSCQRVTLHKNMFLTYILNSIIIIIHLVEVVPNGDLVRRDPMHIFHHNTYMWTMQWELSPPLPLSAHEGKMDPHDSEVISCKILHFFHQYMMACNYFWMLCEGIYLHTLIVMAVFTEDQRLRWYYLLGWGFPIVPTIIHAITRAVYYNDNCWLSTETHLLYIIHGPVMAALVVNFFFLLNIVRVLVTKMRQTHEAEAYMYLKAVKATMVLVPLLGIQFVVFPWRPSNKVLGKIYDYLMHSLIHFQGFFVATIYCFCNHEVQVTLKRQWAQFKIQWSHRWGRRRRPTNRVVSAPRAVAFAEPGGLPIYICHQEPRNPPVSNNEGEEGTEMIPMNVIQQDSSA
The experiment in a line: Displacement of 125I-Calcitonin from rat CTR expressed in Baby hamster kidney cell membrane incubated for 120 mins by SPA method. The format is cell membranes.

The nature of series [3]: Solubility of compound at pH 4 incubated overnight by UPLC analysis. The settings on record: buffer. Type of series: physicochemical.
Series [4] can be described thus: Solubility of compound at pH 6 incubated overnight by UPLC analysis. The format is physicochemical. The settings on record: buffer.
A short description of series [5]: Solubility of compound at pH 6.5 incubated overnight by UPLC analysis. Type of series: physicochemical. The following applies: buffer.
Series [6] in a line: Solubility of compound at pH 8 incubated overnight by UPLC analysis. Type of series: physicochemical. The following applies: buffer.
Series [7] in a line: Stability against amyloid fibril formation at pH 7.5 assessed as compound recovery at 1 uM measured after 45 hrs by ThT assay. Type of series: physicochemical. The following applies: pH 7.5, 45 h.
In series [8] the test system is Rattus norvegicus. As to the kind of experiment: Appetite suppressing activity in rat assessed as reduction in food intake at 30 nmol/kg, sc measured for 24 to 48 hrs relative to control. The format is functional. The arrangement: scale not given: the % may be the effect or the level left. The settings on record: time 24-48 hrs.
Series [9] has as its target Calcitonin-gene-related peptide receptor, CALCRL/RAMP1 (Homo sapiens, UniProt O60894+Q16602). As to the kind of experiment: Agonist activity at human CGRPR complex of CRLR/RAMP1 transduced in human HeLa cells by cAMP assay. The format is functional, cell-based.
Series [10] can be described thus: Terminal half life in Gottingen minipig at 4.8 nmol/kg, iv. The format is ADME, Sus scrofa. The settings on record: pig, in vivo, read-out: beta t1/2 (converted).
Series [11] relates to Rattus norvegicus. The experiment in a line: Appetite suppressing activity in rat assessed as reduction in food intake at 3 nmol/kg, sc measured after 24 hrs relative to control. The format is functional. On the set-up: scale not given: the % may be the effect or the level left.
Series [12] relates to Canis familiaris. As to the kind of experiment: Appetite suppressing activity in dog assessed as reduction in food intake administered subcutaneously measured for 48 hrs. Type of series: functional, organism-based. The settings on record: Canis lupus familiaris, dose 3-300 nmol/kg, route sc.
Series [13] deals with Canis familiaris. As to the kind of experiment: Appetite suppressing activity in dog assessed as reduction in food intake at 300 nmol/kg, sc measured for 48 hrs relative to control. Type of series: functional, Canis lupus familiaris. On the set-up: scale not given: the % may be the effect or the level left.
Series [14] in a line: Toxicity in dog assessed as vomiting at 3 to 300 nmol/kg, sc. On the set-up: species or system Canis lupus familiaris. The following applies: in vivo, dose 3-300 nmol/kg.
Series [15] deals with Rattus norvegicus. As to the kind of experiment: Appetite suppressing activity in HFD-fed DIO rat model assessed as reduction in food intake at 0.7 to 22 nmol/kg, sc qd measured for 1 to 2 hrs. The format is functional, organism-based. The following applies: dose 0.7-22 nmol/kg, time 1-2 hrs.
For series [16], the system named is Rattus norvegicus. The experiment in a line: Appetite suppressing activity in HFD-fed DIO rat model assessed as reduction in body weight at 2.2 to 22 nmol/kg, sc qd measured for 21 days relative to control. Type of series: functional. On the set-up: scale not given: the % may be the effect or the level left. The settings on record: dose 2.2-22 nmol/kg, time 21 day.

In series [17] the test system is Rattus norvegicus. The experiment in a line: Appetite suppressing activity in HFD-fed DIO rat model assessed as reduction in body weight at 0.7 to 22 nmol/kg, sc qd measured after 15 days. Type of series: functional, organism-based. The settings on record: dose 0.7-22 nmol/kg, time 15.0 day.
In series [18] the test system is Rattus norvegicus. The experiment in a line: Appetite suppressing activity in HFD-fed DIO rat model assessed as reduction in food intake at 0.7 to 22 nmol/kg, sc qd measured after 15 days. The following applies: dose 0.7-22 nmol/kg, time 15.0 day. Type of series: functional, organism-based.
The subject of series [19] is Rattus norvegicus. As to the kind of experiment: Appetite suppressing activity in HFD-fed DIO rat model assessed as reduction in body weight administered subcutaneously once daily measured for 21 days. Type of series: functional, organism-based. The settings on record: dose 0.7-22 nmol/kg, route sc, time 21.0 day.
Series [20] relates to Rattus norvegicus. The experiment in a line: Appetite suppressing activity in HFD-fed DIO rat model assessed as reduction in body weight administered subcutaneously once daily measured after 21 days. The following applies: dose 0.7-22 nmol/kg, route sc, time 21.0 day. The format is functional, organism-based.

Molecules are shown by their SMILES. In brackets after ≈: the same amount, converted by molar mass. Activity calls are given as the source filed them. The rule behind the calls is not given here.

What is called EC50 is the concentration needed to bring the measured effect to its halfway point. The IC50 is the midpoint of a concentration-inhibition curve. By solubility is commonly meant the dissolved amount per volume that the medium holds.

Calcitonin-gene-related peptide receptor, CALCRL/RAMP1, sequence (O60894 whole entry): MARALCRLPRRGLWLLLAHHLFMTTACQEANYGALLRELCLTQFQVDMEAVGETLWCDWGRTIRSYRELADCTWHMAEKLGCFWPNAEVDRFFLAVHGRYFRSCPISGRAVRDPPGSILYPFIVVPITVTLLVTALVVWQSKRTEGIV
Calcitonin-gene-related peptide receptor, CALCRL/RAMP1, sequence (Q16602 whole entry): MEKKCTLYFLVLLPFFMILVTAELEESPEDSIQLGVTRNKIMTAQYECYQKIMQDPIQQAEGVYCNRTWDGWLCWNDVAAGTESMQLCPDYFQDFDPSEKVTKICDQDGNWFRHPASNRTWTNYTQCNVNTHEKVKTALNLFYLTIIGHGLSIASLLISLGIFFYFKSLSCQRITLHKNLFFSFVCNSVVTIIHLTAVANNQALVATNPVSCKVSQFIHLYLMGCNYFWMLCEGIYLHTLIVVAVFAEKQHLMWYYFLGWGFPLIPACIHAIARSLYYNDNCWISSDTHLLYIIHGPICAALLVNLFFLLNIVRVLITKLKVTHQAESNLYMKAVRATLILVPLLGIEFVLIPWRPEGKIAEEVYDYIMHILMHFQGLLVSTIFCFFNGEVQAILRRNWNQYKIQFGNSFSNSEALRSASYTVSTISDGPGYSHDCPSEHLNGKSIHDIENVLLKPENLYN

For the compound `CC[C@H](C)[C@H](NC(=O)[C@H](C)NC(=O)CNC(=O)[C@H](Cc1ccccc1)NC(=O)[C@H](CC(N)=O)NC(=O)[C@@H]1CCCN1C(=O)[C@H](CO)NC(=O)[C@H](CO)NC(=O)[C@H](Cc1c[nH]cn1)NC(=O)[C@H](CCCNC(=N)N)NC(=O)[C@H](CC(C)C)NC(=O)[C@H](Cc1ccccc1)NC(=O)[C@H](CC(=O)O)NC(=O)[C@H](C)NC(=O)[C@H](CC(C)C)NC(=O)[C@H](CCCNC(=N)N)NC(=O)[C@H](CCC(N)=O)NC(=O)[C@@H](NC(=O)[C@H](C)NC(=O)[C@@H]1CSSC[C@H](NC(=O)[C@@H](N)CCCCN)C(=O)N[C@@H](CC(N)=O)C(=O)N[C@@H]([C@@H](C)O)C(=O)N[C@@H](C)C(=O)N[C@@H]([C@@H](C)O)C(=O)N1)[C@@H](C)O)C(=O)N1CCC[C@H]1C(=O)N[C@@H](CO)C(=O)N[C@@H](CO)C(=O)N[C@H](C(=O)N[C@@H](CC(N)=O)C(=O)N[C@H](C(=O)NCC(=O)N[C@@H](CO)C(=O)N[C@@H](CCCNC(=N)N)C(=O)N[C@H](C(=O)N[C@@H](Cc1ccc(O)cc1)C(N)=O)[C@@H](C)O)C(C)C)[C@@H](C)O`, the EC50 is 0.177 nM in series [1] and 269 nM in series [9]. Besides, the IC50 in series [2] is 0.561 nM; at Calcitonin receptor it was 135 nM. The solubility in [3] is ≥ 200 µM; in series [4] it was ≥ 200 µM; in [5], ≥ 200 µM; in series [6] it was 110 µM (≈ 437 µg/mL). Further, the Drug recovery in series [7] amounted to 96%. The Activity in the series on Rattus norvegicus [8] is 50%; with Rattus norvegicus [11], 25%; with Canis familiaris [12], “Dose-Dependent Effect”; in the series with Canis familiaris [13] it was 90%; in series [14] it was “Non-Toxic”; in the series on Rattus norvegicus [16], 8.7%. Also, the Activity result with Rattus norvegicus [19] and in the series with Rattus norvegicus [20] was “Dose-Dependent Effect” throughout. Besides, in [10], the half-life was ~115 h. In the series on Rattus norvegicus [15], the result was Active. Also, the result in the series with Rattus norvegicus [17] and in the series with Rattus norvegicus [18] was inactive.

Values taken from ChEMBL document CHEMBL5523739, “NN1213 - A Potent, Long-Acting, and Selective Analog of Human Amylin” (J Med Chem, 2024).
